The text below walks through data of patent publication US20070118211A1, “Method for preparing drug eluting medical devices and devices obtained therefrom” (priority 2003, published 2007).

Structures are written as SMILES.

This data set is described as follows: elution of the drug from coated stents in physiological solution (UV absorbance). In kind it is physicochemical. As to conditions: stent with allylamine polymer deposited by cold plasma compared with stent with polymer according to the state of the art (polybutadiene layers); 1 cc physiological solution; absorbance at 261 nm; FIG. 1. The procedure: Next, the stents were immersed in test tubes containing 1 cc of physiological solution and the rate of elution of the drug was measured by acquiring the visible UV spectrum using a Unicam 8700 spectrophotometer and reading off the absorbance at 261 nm. The correlation between absorbance and concentration was established by measuring the absorbance of solutions of known concentration (calibration curve). The drug elution measurements were carried out at fixed time intervals and the physiological solution was changed at each measurement.
10 mg of dexamethasone were dissolved in 1 cc of ethanol and applied as described previously. The elution curves were again measured as described in example 1 and the absorbance at 264.4 nm was read off.

As to `CS(=O)(=O)O.Cc1ccc(NC(=O)c2ccc(CN3CCN(C)CC3)cc2)cc1Nc1nccc(-c2cccnc2)n1` [hydrophilic drug, 4-[(4-methyl-1-piperazinyl)methyl]-N-[4-methyl-3-[[4-(3-pyridinyl)-2-pyrimidinyl]amino]-phenyl]benzamide methanesulphonate], the “elution of the hydrophilic drug” value is reported as “significantly delays the elution”.
